# According to patent publication US20180271857A1, “TREATMENT OF CANCER BY INHIBITING EZH2 ACTIVITY” (University of Copenhagen, priority 2014, published 2018):
# Tests used:
# [1] = tested on: Ezh2 expression in Ezh2f/f; PDGFB/H3K27M NSCs; experiment: Immunoblot of Ezh2 after 4-OHT treatment of Ezh2f/f; PDGFB/H3K27M NSCs (FIG. 3a); assay type: cell-based, mouse; details: CreER PDGFB/H3K27M NSCs, 8 days of treatment (FIG. 3a)
# Procedure: Cells were trypsinized, washed once with 1× phosphate buffer saline (PBS) and lysed in TOPEX+ buffer (300 mM NaCl, 50 mM Tris-HCl pH7.5, 0.5% Triton X-100, 1% SDS, 1 mM DTT, Aprotinin, Leupeptin, 0.1 mM phenylmethanesulfonyl fluoride (PMSF) and 33.33 U/mL Benzonase (EMD-Novagen)). Protein concentrations in the cell lysates were measured by Bradford reagent (Bio-Rad). Cell lysates were separated by SDS-PAGE and transferred to nitrocellulose membrane. The antibodies used for the immunoblotting were antibodies specifically recognising H3K27me3 (C36B11, Cell Signaling), H3K27me2, p16^Ink4a, p53, H3K27M, actin, H3 and Ezh2.
# [2] = tested on: Ezh2f/f; PDGFB/H3K27M NSCs injected into the mouse pons; experiment: Survival of mice injected in the pons with pre-treated Ezh2f/f; PDGFB/H3K27M NSCs (FIG. 3b); details: 10^5 cells pre-treated with 4-OHT vs ethanol
# Excerpt: Briefly, mice were anesthetized using isoflurane (1.5 L O2/minute and 2.5% isoflurane) and placed in a stereotactic device (David Kopf instruments). […] The hole in the skull was closed with bonewax (Agnthos) and the scalp was closed using clips (Agnthos). The clips were removed after one week of injection.
# PDGFB/H3K27M NSCs in mice with Ezh2^f/f; CreER (Ezh2^f/f;PDGFB/H3K27M) background were generated. In these mice Ezh2 could be conditionally deleted.
# [3] = tested on: PDGFB NSCs expressing either WT or K27M mutant H3.3; experiment: Colony formation assay of PDGFB NSCs (FIG. 2C); assay type: cell-based, mouse; details: 2000 cells plated, colonies after 9 days
# [4] = tested on: PDGFB NSCs expressing either WT or K27M mutant H3.3; details: 3 μM inhibitor vs DMSO
# Excerpt: Cells were harvested and counted using Neubauer chamber every 3-4 days.
# [5] = tested on: Ink4a−/−/Arf−/− NSCs expressing constitutive active epidermal growth factor receptor (*EGFR); experiment: Cell proliferation of adult GBM model cells (FIG. 4); assay type: cell-based, mouse; details: inhibitor vs DMSO
# Excerpt: Cell proliferation of DMSO or EZH2 inhibitor treated Ink4a/Arf−/−*EGFR NSCs.
# A mouse model representing adult classical subtype of GBM subtypes was investigated.
# [6] = tested on: Ezh2f/f; PDGFB/H3K27M NSCs injected into the mouse pons; experiment: Survival of mice bearing Ezh2f/f; PDGFB/H3K27M NSC tumours treated in vivo (FIG. 3c); details: 10^4 cells injected into the pons, treatment after 3 weeks, vs oil-treated control
# [7] = biological target: T1, Human PRC2 complex (EZH2, EED, SUZ12, RbAp48, AEBP2) (Homo sapiens, UniProt Q15910); experiment: EZH2 methyltransferase activity within PRC2 complex, scintillation proximity assay (Example 2); assay type: biochemical; details: determined as described in Example 2; inhibition of methyltransferase activity of EZH2 within PRC2
# T1 construct: FLAG (N); made in house; host or cells: Sf9 insect cells
# Procedure: Compounds can be evaluated for their ability to inhibit the methyltransferase activity of EZH2 within the PRC2 complex using the following assay. Human PRC2 complex is prepared by co-expressing each of the 5 member proteins (EZH2, EED, SUZ12, RbAp48, AEBP2) in Sf9 cells followed by co-purification. The proteins may be expressed as tagged versions, e.g. EZH2 may be expressed as FLAG-EZH2. The tag can be used for purification.
# Enzyme activity is measured in a scintillation proximity assay (SPA) where a tritiated methyl group is transferred from 3H-SAM to a lysine residue on Histone H3 of a mononucleosome, purified from HeLa cells. Mononucleosomes are captured on SPA beads and the resulting signal is read on a ViewLux plate reader. SPA beads are e.g. available from Perkin Elmer, United States. This may be done as described in Garapaty-Rao et al, 2013 Identification of EZH2 and EZH1 small molecule inhibitors with selective impact on diffuse large B cell lymphoma cell growth. Chemistry and Biology 20, 1329-1339.
# 1. […]
# 1. Read the assay plates on the Viewlux Plate Reader utilizing the 613 nm emission filter with a 300 s read time. […]
# Percent inhibition is calculated relative to the DMSO control for each compound concentration and the resulting values are fit using standard IC50 fitting parameters within the ABASE data fitting software package.
# EZH2 = details: PDGFB NSCs, different concentrations for 3 days, FIG. 2A
# T1 sequence (Q15910 whole entry): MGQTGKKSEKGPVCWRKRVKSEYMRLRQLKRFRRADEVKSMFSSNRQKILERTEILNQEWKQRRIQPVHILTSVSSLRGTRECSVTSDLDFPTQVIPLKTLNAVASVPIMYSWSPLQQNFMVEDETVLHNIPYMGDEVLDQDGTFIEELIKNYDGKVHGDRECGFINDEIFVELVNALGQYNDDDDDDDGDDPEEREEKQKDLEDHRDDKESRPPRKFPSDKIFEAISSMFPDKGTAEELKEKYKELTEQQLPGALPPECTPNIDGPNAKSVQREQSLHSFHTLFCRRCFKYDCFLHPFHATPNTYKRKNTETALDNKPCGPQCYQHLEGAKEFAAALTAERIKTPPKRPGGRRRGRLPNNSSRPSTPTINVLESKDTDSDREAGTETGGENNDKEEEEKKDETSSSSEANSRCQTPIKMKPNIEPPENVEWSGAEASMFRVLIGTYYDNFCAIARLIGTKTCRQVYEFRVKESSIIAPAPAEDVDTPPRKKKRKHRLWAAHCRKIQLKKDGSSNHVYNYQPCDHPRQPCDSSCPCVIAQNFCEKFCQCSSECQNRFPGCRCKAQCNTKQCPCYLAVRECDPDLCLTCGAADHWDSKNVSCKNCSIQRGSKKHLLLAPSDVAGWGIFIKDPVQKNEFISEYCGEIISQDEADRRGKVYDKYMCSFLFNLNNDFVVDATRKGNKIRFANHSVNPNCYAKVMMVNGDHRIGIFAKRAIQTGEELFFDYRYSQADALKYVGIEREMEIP
# T1 sequence (O75530 whole entry partner): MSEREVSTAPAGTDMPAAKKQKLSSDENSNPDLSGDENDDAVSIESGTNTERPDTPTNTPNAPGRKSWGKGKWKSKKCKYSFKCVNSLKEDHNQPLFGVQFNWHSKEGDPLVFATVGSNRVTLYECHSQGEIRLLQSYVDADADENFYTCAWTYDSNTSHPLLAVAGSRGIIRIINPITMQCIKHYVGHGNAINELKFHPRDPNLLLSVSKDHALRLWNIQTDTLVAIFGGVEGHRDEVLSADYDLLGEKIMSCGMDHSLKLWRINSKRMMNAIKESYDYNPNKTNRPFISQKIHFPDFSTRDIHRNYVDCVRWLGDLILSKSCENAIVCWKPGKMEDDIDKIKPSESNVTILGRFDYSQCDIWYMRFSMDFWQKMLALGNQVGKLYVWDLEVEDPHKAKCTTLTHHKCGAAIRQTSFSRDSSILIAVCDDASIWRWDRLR
# T1 sequence (Q15022 whole entry partner): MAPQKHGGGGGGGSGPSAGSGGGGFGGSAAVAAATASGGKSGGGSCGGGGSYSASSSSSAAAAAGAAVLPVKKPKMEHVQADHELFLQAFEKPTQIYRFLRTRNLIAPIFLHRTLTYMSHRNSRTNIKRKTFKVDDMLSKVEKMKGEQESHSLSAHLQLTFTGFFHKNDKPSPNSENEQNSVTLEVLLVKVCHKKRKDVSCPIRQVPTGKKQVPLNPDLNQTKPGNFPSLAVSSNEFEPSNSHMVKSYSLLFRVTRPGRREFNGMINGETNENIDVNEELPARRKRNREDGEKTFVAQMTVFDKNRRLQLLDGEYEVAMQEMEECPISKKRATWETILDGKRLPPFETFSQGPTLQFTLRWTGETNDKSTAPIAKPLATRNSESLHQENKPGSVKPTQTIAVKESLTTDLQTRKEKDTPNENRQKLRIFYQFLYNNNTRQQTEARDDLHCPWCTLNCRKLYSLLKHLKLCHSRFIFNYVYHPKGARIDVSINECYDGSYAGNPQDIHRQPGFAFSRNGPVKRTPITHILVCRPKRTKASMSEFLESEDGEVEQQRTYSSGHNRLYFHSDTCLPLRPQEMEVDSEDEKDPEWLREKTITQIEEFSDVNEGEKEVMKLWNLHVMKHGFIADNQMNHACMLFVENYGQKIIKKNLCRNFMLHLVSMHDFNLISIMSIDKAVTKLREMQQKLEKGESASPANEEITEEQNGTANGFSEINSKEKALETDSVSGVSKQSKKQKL
# T1 sequence (Q09028 whole entry partner): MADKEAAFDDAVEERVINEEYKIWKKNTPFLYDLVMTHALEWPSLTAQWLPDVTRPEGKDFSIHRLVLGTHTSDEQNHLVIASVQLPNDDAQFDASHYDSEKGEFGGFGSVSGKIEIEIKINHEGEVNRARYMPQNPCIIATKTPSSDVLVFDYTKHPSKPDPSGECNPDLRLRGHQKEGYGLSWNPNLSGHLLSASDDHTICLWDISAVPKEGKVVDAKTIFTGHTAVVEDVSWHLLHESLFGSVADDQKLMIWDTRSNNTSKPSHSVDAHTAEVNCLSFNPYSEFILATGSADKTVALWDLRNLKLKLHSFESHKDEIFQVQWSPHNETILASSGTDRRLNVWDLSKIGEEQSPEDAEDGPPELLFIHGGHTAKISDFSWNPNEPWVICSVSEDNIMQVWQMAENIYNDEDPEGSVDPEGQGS
# T1 sequence (Q6ZN18 1-503 partner limits assumed): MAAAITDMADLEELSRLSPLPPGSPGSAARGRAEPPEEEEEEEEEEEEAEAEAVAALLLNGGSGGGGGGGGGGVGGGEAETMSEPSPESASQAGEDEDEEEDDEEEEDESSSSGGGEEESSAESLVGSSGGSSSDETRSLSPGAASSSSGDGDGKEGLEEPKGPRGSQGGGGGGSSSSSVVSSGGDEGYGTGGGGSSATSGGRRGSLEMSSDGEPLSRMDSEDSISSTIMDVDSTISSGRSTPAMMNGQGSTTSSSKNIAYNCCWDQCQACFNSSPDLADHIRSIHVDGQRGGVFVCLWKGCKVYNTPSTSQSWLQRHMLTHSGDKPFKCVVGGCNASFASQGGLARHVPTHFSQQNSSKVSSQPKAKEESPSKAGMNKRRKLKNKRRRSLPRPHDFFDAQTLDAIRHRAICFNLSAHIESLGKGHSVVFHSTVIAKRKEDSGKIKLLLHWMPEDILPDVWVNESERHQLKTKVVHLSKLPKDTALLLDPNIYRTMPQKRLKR
Compound,colonies formed [3],proliferation [4],proliferation [5],also measured
4-hydroxytamoxifen [4-OHT],,,,Ezh2 expression [1]: complete loss of Ezh2; survival of mice [2]: significantly longer survival
CCN(c1cc(-c2ccc(CN3CCOCC3)cc2)cc(C(=O)NCc2c(C)cc(C)[nH]c2=O)c1C)C1CCOCC1 [EPZ6438],formed fewer colonies,reduced proliferation,did not affect their proliferation,
"CC/C(=C(\c1ccccc1)c1ccc(OCCN(C)C)cc1)c1ccccc1 [Tamoxifen, tamoxifen]",,,,survival of mice [6]: significantly longer survival
GSK343,formed fewer colonies,reduced proliferation,did not affect their proliferation,IC50 [7]: 5 nM; EZH2 inhibition (H3K27me3 and H3K27me2 levels by immunoblot) (EZH2): potent and highly selective EZH2 inhibitors
